The results in this text go back to patent publication US12509437B2, “Substituted thiophene carboxamides and derivatives thereof as microbicides” (Bayer Aktiengesellschaft, priority 2019, dated 2025).

A short description of the series: LogP by HPLC on reversed phase columns (EEC directive 79/831 Annex V.A8). The class given is physicochemical. How it is done:
[table] If more than one Log P value is available within the same method, all the values are given and separated by “+”. Calibration was done with straight-chain alkan2-ones (with 3 to 16 carbon atoms) with known Log P values (measurement of Log P values using retention times with linear interpolation between successive alkanones). Lambda-max-values were determined using UV-spectra from 200 nm to 400 nm and the peak values of the chromatographic signals.

The mark [1] stands for this setting: method [a]: LC-UV, acidic range, 0.1% formic acid in water and acetonitrile as eluent.

For `Cc1c(C(=O)NC2(C(=O)O)CC2)sc(Cl)c1Cl` [1-{[(4,5-dichloro-3-methyl-2-thienyl)carbonyl]amino}cyclopropanecarboxylic acid], the chromatographic logP (reversed phase HPLC columns, preparation examples, method not indicated, read-out: Log P) came out at 2.17.

For `Cc1c(C(=O)NC2C(=O)SC2(C)C)sc(Br)c1Br` (stereo not shown) [I.001], the LogP under setting [1] is 3.99^[a]. The same measure, in the same setting: for `Cc1c(C(=O)NC2CCSC2=O)sc(Br)c1Br` (stereo not shown) [I.002] the value was 3.04^[a]. Regarding `COC(=O)C1(NC(=O)c2sc(Br)c(Br)c2C)CCOC1` (stereo not shown) [I.004], the LogP (method [a]) is 2.84^[a]. As to `CCSC(=O)C(CC(C)C)NC(=O)c1sc(Br)c(Br)c1C` (stereo not shown) [I.007], the LogP (method [a]) was 5.03^[a].

On to `CCSC(=O)C(NC(=O)c1sc(Br)c(Br)c1C)C(C)C` (stereo not shown) [I.008], for which the LogP (method [a]) is 4.74^[a]. Turning to `Cc1c(C(=O)N[C@H]2CCSC2=O)sc(Br)c1Br` [I.010], the LogP under setting [1] is 3.04^[a]. As to `Cc1c(C(=O)NCC(=O)Sc2ccccc2)sc(Br)c1Br` [I.011], the LogP (method [a]) was 4.10^[a]. In the case of `COC(=O)CC1(NC(=O)c2sc(Br)c(Br)c2C)CC1` [I.012], where the note is “method [a]”, the LogP is 3.07^[a].

For the compound `CCOC(=O)C1(CNC(=O)c2sc(Br)c(Br)c2C)CC1` [I.013], where the note is “method [a]”, the LogP is 3.79^[a]. The same measure, in the same setting: under `CCOC(=O)C1(C2(NC(=O)c3sc(Br)c(Br)c3C)CC2)CC1` [I.017] stands 4.37^[a]; under `CCOC(=O)C(CC(F)(F)F)NC(=O)c1sc(Br)c(Br)c1C` (stereo not shown) [I.018], 3.99^[a]. For the compound `Cc1c(C(=O)NCC2(C(=O)O)CC2)sc(Br)c1Br` [I.019], the LogP (method [a]) was 2.50^[a]. Still for that read-out and setting: under `Cc1c(C(=O)NC2(C3(C(=O)OC(C)C)CC3)CC2)sc(Br)c1Br` [I.020] stands 4.87^[a].

As to `Cc1c(C(=O)NC2CCOC2=O)sc(Br)c1Br` (stereo not shown) [I.021], the LogP under setting [1] was 2.41^[a]. In the case of `Cc1c(C(=O)NC2CCCNC2=O)sc(Br)c1Br` (stereo not shown) [I.022], the LogP under setting [1] is 2.10^[a]. For the compound `Cc1c(C(=O)NCC(=O)NC2(C(=O)O)CC2)sc(Br)c1Br` [I.025], the LogP (method [a]) was 1.95^[a]. Same read-out and setting: under `Cc1c(C(=O)NCC#N)sc(Br)c1Br` [I.026] stands 2.59^[a]; under `Cc1c(C(=O)NC2(C#N)CC2)sc(Br)c1Br` [I.027], 2.80^[a]. In the case of `Cc1c(C(=O)NC(C#N)C(C)C)sc(Br)c1Br` (stereo not shown) [I.028], the LogP (method [a]) is 3.64^[a].

Turning to `Cc1c(C(=O)NC(C#N)c2ccccc2)sc(Br)c1Br` (stereo not shown) [I.029], the LogP (method [a]) is 3.85^[a].

Take `Cc1c(C(=O)NC(C#N)Cc2ccccc2)sc(Br)c1Br` (stereo not shown) [I.030]: the LogP (method [a]) was 4.01^[a]. Same read-out and setting: under `CCOC(=O)C(Cc1c[nH]c2ccccc12)NC(=O)c1sc(Br)c(Br)c1C` (stereo not shown) [I.036] stands 4.15^[a]. In the case of `Cc1c(C(=O)NC2CCSC2=O)sc(Cl)c1Cl` (stereo not shown) [I.037], the LogP under setting [1] is 2.86^[a]. Regarding `CCOC(=O)CCNC(=O)c1sc(Cl)c(Cl)c1C` [I.038], where the note is “method [a]”, the LogP was 3.06^[a]. Same read-out and setting: for `CCSC(=O)C(CC(C)C)NC(=O)c1sc(Cl)c(Cl)c1C` (stereo not shown) [I.041] the value was 5.00^[a]. The same measure, in the same setting: under `CCSC(=O)C(NC(=O)c1sc(Cl)c(Cl)c1C)C(C)C` (stereo not shown) [I.042] stands 4.69^[a]; under `COC(=O)[C@H](CCC(N)=O)NC(=O)c1sc(Cl)c(Cl)c1C` [I.046], 2.06^[a]. `COC(=O)[C@H](Cc1ccccc1)NC(=O)[C@H](CC(=O)O)NC(=O)c1sc(Cl)c(Cl)c1C` [I.048]: the LogP under setting [1] is 3.09^[a]. As to `COC(=O)C1(NC(=S)c2sc(Cl)c(Cl)c2C)CC1` [I.050], the LogP (method [a]) is 3.68^[a]. Same read-out and setting: under `Cc1c(C(=O)NC(C(N)=O)C(C)C)sc(Br)c1Br` (stereo not shown) [I.051] stands 2.58^[a]; under `COC(=O)[C@@H](CC(N)=O)NC(=O)c1sc(Br)c(Br)c1C` [I.052], 2.12^[a]; under `COC(=O)[C@H](CC(N)=O)NC(=O)c1sc(Br)c(Br)c1C` [I.053], 2.12^[a]. Same read-out and setting: under `COC(=O)[C@@H](CC(N)=O)NC(=O)c1sc(Cl)c(Cl)c1C` [I.054] stands 2.05^[a]; under `COC(=O)[C@H](CC(N)=O)NC(=O)c1sc(Cl)c(Cl)c1C` [I.055], 2.02^[a]. Still for that read-out and setting: for `CCOC(=O)CN(C)C(=O)c1sc(Cl)c(Cl)c1C` [I.057] the value was 3.15^[a]; for `CCOC(=O)C(C(C)C)N(C)C(=O)c1sc(Br)c(Br)c1C` (stereo not shown) [I.058], 4.51^[a]. Turning to `CCOC(=O)C(C(C)C)N(C)C(=O)c1sc(Cl)c(Cl)c1C` (stereo not shown) [I.059], the LogP (method [a]) was 4.44^[a]. `CON(C)C(=O)C(NC(=O)c1sc(Br)c(Br)c1C)C(C)C` (stereo not shown) [I.061]: the LogP (method [a]) is 3.71^[a]. On to `Cc1c(C(=O)NCC(N)=O)sc(Cl)c1Cl` [I.062], for which the LogP (method [a]) is 1.75^[a].

Turning to `Cc1c(C(=O)NC2(C(N)=O)CC2)sc(Cl)c1Cl` [I.063], for the setting “method [a]”, the LogP was 1.96^[a].

In the case of `Cc1c(C(=O)NC2CCNC2=O)sc(Br)c1Br` (stereo not shown) [I.064], the LogP under setting [1] was 1.93^[a].

For the compound `Cc1c(C(=O)NC2CNC(=O)C2)sc(Br)c1Br` (stereo not shown) [I.065], the LogP under setting [1] is 1.89^[a]. Still for that read-out and setting: under `Cc1c(C(=O)NC2CCNC(=O)C2)sc(Br)c1Br` (stereo not shown) [I.066] stands 1.93^[a]. Turning to `Cc1c(C(=O)NC(CO)C(=O)O)sc(Cl)c1Cl` (stereo not shown) [I.067], the LogP (method [a]) is 1.84^[a].

Take `Cc1c(C(=O)NC(CC(N)=O)C(=O)O)sc(Cl)c1Cl` (stereo not shown) [I.068]: the LogP (method [a]) is 1.73^[a]. In the case of `Cc1c(C(=O)NC(CCC(N)=O)C(=O)O)sc(Cl)c1Cl` (stereo not shown) [I.069], the LogP (method [a]) was 1.70^[a]. As for `Cc1c(C(=O)NC(CO)C(=O)O)sc(Br)c1Br` (stereo not shown) [I.071], under “method [a]”, the LogP is 1.92^[a].

For the compound `Cc1c(C(=O)NC(CCC(N)=O)C(=O)O)sc(Br)c1Br` (stereo not shown) [I.072], the LogP (method [a]) is 1.77^[a].

Regarding `Cc1c(C(=O)NC(Cc2c[nH]c3ccccc23)C(=O)O)sc(Br)c1Br` (stereo not shown) [I.073], the LogP (method [a]) is 3.07^[a]. Regarding `Cc1c(C(=O)NC(C(=O)NCC#N)C(C)C)sc(Br)c1Br` (stereo not shown) [I.075], the LogP (method [a]) is 2.92^[a]. As to `COC(=O)CC1(NC(=O)c2sc(Cl)c(Cl)c2C)CC1` [I.082], the LogP (method [a]) is 2.98^[a]. On the same count and under the same terms, for `COC(=O)C(NC(=O)c1sc(Cl)c(Cl)c1C)C(=O)OC` [I.084] the value was 3.01^[a]; for `CCOC(=O)C(CC1CC1)NC(=O)c1sc(Cl)c(Cl)c1C` (stereo not shown) [I.085], 4.23^[a]. For the compound `COC(=O)C(NC(=O)c1sc(Cl)c(Cl)c1C)(C1CC1)C1CC1` [I.086], where the note is “method [a]”, the LogP is 3.94^[a]. For `CCOC(=O)C(NC(=O)c1sc(Cl)c(Cl)c1C)C(=O)OCC` [I.087], under “method [a]”, the LogP is 3.81^[a].

`CCOC(=O)C1(NC(=O)c2sc(Cl)c(Cl)c2C)CN(C(=O)OC(C)(C)C)C1` [I.088]: where the note is “method [a]”, the LogP is 4.15^[a]. The same measure, in the same setting: for `CCOC(=O)C(NC(=O)c1sc(Br)c(Br)c1C)C1CC1` (stereo not shown) [I.089] the value was 3.84^[a]. Still for that read-out and setting: for `CCOC(=O)C1(NC(=O)c2sc(Br)c(Br)c2C)CN(C(=O)OC(C)(C)C)C1` [I.090] the value was 4.23^[a]; for `COC(=O)C(NC(=O)c1sc(Br)c(Br)c1C)C(=O)OC` [I.091], 3.10^[a]; for `CCOC(=O)C(CC1CC1)NC(=O)c1sc(Br)c(Br)c1C` (stereo not shown) [I.092], 4.30^[a]. On the same count and under the same terms, under `COC(=O)C(NC(=O)c1sc(Br)c(Br)c1C)(C1CC1)C1CC1` [I.093] stands 4.01^[a].

In the case of `CCOC(=O)C(NC(=O)c1sc(Br)c(Br)c1C)C(=O)OCC` [I.094], the LogP (method [a]) is 3.87^[a]. For `Cc1c(C(=O)NC(C(=O)NC(C(=O)O)C2CC2)C2CC2)sc(Cl)c1Cl` (stereo not shown) [I.096], under “method [a]”, the LogP was 2.67^[a]. The same measure, in the same setting: under `CCOC(=O)CN(OC)C(=O)c1sc(Br)c(Br)c1C` [I.097] stands 3.93^[a]. As to `CCOC(=O)CN(OC)C(=O)c1sc(Cl)c(Cl)c1C` [I.098], the LogP (method [a]) is 3.87^[a]. With `CCOC(=O)CNC(=S)c1sc(Cl)c(Cl)c1C` [I.099], for the setting “method [a]”, the LogP is 3.92^[a].

With `CCOC(=O)C1(NC(=S)c2sc(Br)c(Br)c2C)CC1` [I.100], the LogP (method [a]) is 4.15^[a]. The same measure, in the same setting: for `Cc1c(C(=S)NC2(C(=O)O)CC2)sc(Br)c1Br` [I.102] the value was 2.91^[a]. On to `COC(=O)[C@H](CCC(=O)O)NC(=O)c1sc(Cl)c(Cl)c1C` [I.103], for which the LogP (method [a]) is 2.39^[a]. Same read-out and setting: under `COC(=O)[C@H](CCC(=O)O)NC(=O)c1sc(Br)c(Br)c1C` [I.104] stands 2.46^[a]. As for `COC(=O)[C@H](Cc1ccccc1)NC(=O)[C@H](CC(=O)O)NC(=O)c1sc(Br)c(Br)c1C` [I.105], under setting [1], the LogP is 3.11^[a]. Take `CCOC(=O)C1(NC(=O)c2sc(Br)c(Br)c2C)CCCC1` [I.106]: under “method [a]”, the LogP was 4.09^[a]. As to `COC(=O)C1(NC(=O)c2sc(Br)c(Br)c2C)CCOCC1` [I.107], where the note is “method [a]”, the LogP was 2.82^[a]. The same measure, in the same setting: for `COC(=O)CC(C)NC(=O)c1sc(Br)c(Br)c1C` (stereo not shown) [I.109] the value was 3.14^[a]; for `CNC(=O)CNC(=O)c1sc(Cl)c(Cl)c1C` [I.110], 1.92^[a]. In the case of `Cc1c(C(=O)N[C@H]2CCSC2=O)sc(Cl)c1Cl` [I.111], the LogP (method [b]: LC-UV, neutral range, 0.001 molar ammonium acetate solution in water and acetonitrile as eluent) is 2.97^[b]. As to `CCOC(=O)C(NC(=O)c1sc(Br)c(Br)c1C)(OCC)C(C)C` (stereo not shown) [I.112], the LogP (method [a]) is 4.80^[a].

As to `COC(=O)CNC(=S)c1sc(Cl)c(Cl)c1C` [I.113], the LogP (method [a]) was 3.60^[a]. `COC(=O)C(C1CC1)N(O)C(=O)c1sc(Cl)c(Cl)c1C` (stereo not shown) [I.114]: the LogP (method [a]) was 3.13^[a]. For the compound `Cc1c(C(=O)NC(C(=O)NO)C(C)C)sc(Br)c1Br` (stereo not shown) [I.115], the LogP (method [a]) is 2.31^[a]. With `CCOC(=O)CN(O)C(=O)c1sc(Cl)c(Cl)c1C` [I.116], the LogP (method [a]) is 2.95^[a].

Consider `COC(=O)C(CCSC(C)=O)NC(=O)c1sc(Cl)c(Cl)c1C` (stereo not shown) [I.117], for which the LogP (method [a]) is 3.59^[a].

Regarding `COC(=O)CC(NC(=O)c1sc(Cl)c(Cl)c1C)C(=O)OC` (stereo not shown) [I.118], the LogP (method [a]) was 3.00^[a].

On to `COC(=O)[C@H](CSC(=O)N(C)C)NC(=O)c1sc(Cl)c(Cl)c1C` [I.119], for which the LogP (method [a]) is 3.35^[a].
